Values of other authors, collected in patent US11737981B2, “Cellulosic polymer nanoparticles and methods of forming them” (The Trustees of Princeton University, priority 2017, dated 2023).
≈ marks a conversion by molar mass, not a printed value.

Row | solubility in water | Molecule
1 | ~9.6 µg/mL (≈ 13.6 µM) | CCC(C)n1ncn(-c2ccc(N3CCN(c4ccc(OCC5COC(Cn6cncn6)(c6ccc(Cl)cc6Cl)O5)cc4)CC3)cc2)c1=O (stereo not drawn) [Itraconazole]
2 | about 0.031 mg/L | CCCCN(CCCC)CC(O)c1cc(Cl)cc2c1-c1ccc(Cl)cc1/C2=C/c1ccc(Cl)cc1 (stereo not drawn) [Lumefantrine]
3 | about 0.47 mg/L | artefenomel mesylate [OZ439 mesylate]
